Holding throughout (assay type): cell-based
For series [1], the system named is empty vector control cells. How it is done: (§1) T7-PMS134 cells and empty vector control cells were grown with IPTG for 48 hours and then diluted 1:50 in LB plus IPTG and increasing amounts of ethyl methane sulfonate (EMS) from 0, 1, 10, 50, 100, and 200 μM. 10 μL aliquots of culture (diluted in 300 μl LB) were plated out on LB agar plus ampicillin plates and grown overnight at 37 C. The next day plates were analyzed for cell viability as determined by colony formation. […] The 200 μM treatment was toxic for both lines.

In series [2] the test system is T7-PMS134 BL21 cells. The series is described as follows: EMS toxicity, cell viability by colony formation. How it is done: as §1
The subject of series [3] is kanamycin resistant pT7-PMS134 and pT7-PMSR3 colonies. The series is described as follows: Genetic stability of kanamycin resistance (revertants). How it is done:
As described in EXAMPLE 2 and 3, manipulation of the MMR pathway in microbes results in alterations within the host genome and the ability to select for a novel output traits. It is important that the mutations introduced as a result of defective MMR is genetically stable and passed on to daughter cells once a desired output pathway is established. To determine the genetic stability of mutations introduced into the microbial genome the following experiment was performed. Five independent colonies from pT7-PMS134 and pT7-PMSR3 that are kanamycin resistance were grown overnight from an isolated colony in 5 ml of LB. Next, 1 μL of the overnight culture from these cultures were inoculated into another 5 mL of LB and grown overnight to saturation. Under these growth conditions the microbial cells have divided over 20 generations. Therefore, if the new output trait generated by alteration of MMR is unstable, the cells should “revert” back from kanamycin resistance to kanamycin sensitivity. Cells were plated onto LB plates and incubated overnight at 37° C. Next, the colonies (about 1,000/plate) were replica plated to LB, LB^amp100, and LB^kan50 plates and incubated at 37° C. overnight. […] Extended culturing of cells and replica plating found no reversions of KAN resistance in cultures grown in the absence of IPTG, which produce no PMS134 as determined by western blot (data not shown).

The test system of series [4] is BL21 cells. As to the kind of experiment: Kanamycin-resistance (hypermutability) assay in BL21. Conditions: for KAN resistant cells: after 24 hr IPTG-induction; for KAN resistant clones: non-IPTG-induced conditions. Here is the method:
However, upon addition of the inducer IPTG, the cells express high-levels of T7 polymerase due to the IPTG-inducible element that drives expression of the polymerase that is resident within the genome of the BL21 cells (30). The BL21 cells are chloramphenicol resistant due to the plasmid that expresses lysozyme within the cell. To introduce the pT7-hPMS 134 or the pT7-hPMSR3 genes into BL21 cells, the cells were made competent by incubating the cells in ice cold 50 mM CaCl2 for 20 minutes, followed by concentrating the cells and adding super-coiled plasmid DNA as describe (Maniatis, T. et. al. Cold Spring Harbor Laboratory Press, Third Edition, 2001). Ampicillin resistant BL21 were selected on LB-agar plates [[…], 1.5% bactoagar, pH 7.0 (Difco)] plates containing 25 μg/ml chloramphenicol and 100 μg/ml ampicillin. The next day, bacterial colonies were picked and analyzed for vectors containing an intact pTACPMS134 or pTAC empty vector by restriction endonuclease digestion and sequence analysis.
Kanamycin-resistant assays using BL21 cells expressing the V5-tagged or untagged PMS134 or PMSR3 polypeptides were carried out as described above. BL21 bacterial cells that harbor the empty vector, pT7-PMS134 or pT7-PMSR3 were grown overnight in LB supplemented with 100 μg/ml ampicillin. The overnight cultures were diluted 1:100 into fresh ampicillin containing medium and grown for 2.5 hours at 37° C. with continuous shaking. When the cells reached an optical density (OD) of 0.6, measured at 600 nm, IPTG was added to each culture to a final concentration of 0.5 mM. Cells were incubated for 24, and 48 hours; at those time points cells were removed for SDS-PAGE analysis and plating (see above). BL21/pT7 (empty vector), BL21/pT7-PMS134, and BL21/pT7-R3 cells were plated onto LB plates, LB plates that contained 100 ug/ml ampicillin, and plates that contain 50 ug/ml Kanamycin. The equivalent of 1×10^7 cells/plate were spread onto the plates. BL21 cells that harbor the empty vector are capable of growth on LB plates as well as LB plates that contain 100 ug/ml ampicillin; that is as expected since the pT7 expression vector renders the cells ampicillin resistant. The vector only control is not capable of growth on Kanamycin.

These results are taken from patent US7695969B2, “Methods for generating hypermutable microbes” (priority 2000, dated 2010).

Where two headings read alike, the source gives them in different places. Where only a bound is given, the exact number is not on record here.

For `CCOS(C)(=O)=O` [EMS, ethyl methane sulfonate], the colony number in series [1] (1 uM EMS), in series [1] (10 uM EMS), in series [2] (1 uM EMS) and in series [2] (10 uM EMS) was over 1000 colonies each time. Further, the “number of control cells” value is 30 in series [1] (50 μM EMS) and 0 in series [1] (100 μM EMS). The “toxicity (in words)” value in series [1] (200 μM EMS) and in series [2] (200 μM EMS) was “toxic” throughout. Moreover, the “colony number (in words)” value in series [2] (50 μM EMS) is on record as “No difference”. Besides, the “reduction in colony number” value in series [2] (100 μM EMS) is 3 fold.

B1: PMS134: dominant negative human PMS2 truncated at codon 134; N-terminal 133 amino acids (SEQ ID NO: 21) (protein, listed as Homo sapiens)
chain: MKQLPAATVRLLSSSQIITSVVSVVKELIENSLDAGATSVDVKLENYGFDKIEVRDNGEGIKAVDAPVMAMKYYTSKINSHEDLENLTTYGFRGEALGSICCIAEVLITTRTAADNFSTQYVLDGSGHILSQK
On to B1, for which, in series [3] (continually grown in IPTG, out of 1200), the “revertants of KAN resistance” value amounted to 5. The “loss of KAN resistant clones” value in series [3] (grown in the absence of IPTG) is reported as “No loss”. Besides, in series [4], the KAN resistant cells result was “significant number” and the KAN resistant clones entry is “failed to produce any KAN resistant clones”.

B2: PMSR3: human PMS2 related gene product (SEQ ID NO: 24) (protein, listed as Homo sapiens)
chain: MCPWRPRLGRRCMVSPREADLGPQKDTRLDLPRSPARAPREQNSLGEVDRRGPREQTRAPATAAPPRPLGSRGAEAAEPQEGLSATVSACFQEQQEMNTLQGPVSFKDVAVDFTQEEWRQLDPDEKIAYGDVMLENYSHLVSVGYDYHQAKHHHGVEVKEVEQGEEPWIMEGEFPCQHSPEPAKAIKPIDRKSVHQICSGPVVLSLSTAVKELVENSLDAGATNIDLKLKDYGVDLIEVSDNGCGVEEENFEGLISFSSETSHM
B2: in series [4], the KAN resistant cells result is reported as “significant number” and the KAN resistant clones result is listed as “failed to produce any KAN resistant clones”.
